Experimental data reported in ChEMBL document CHEMBL4706648, “Antitubercular 2-Pyrazolylpyrimidinones: Structure-Activity Relationship and Mode-of-Action Studies” (J Med Chem, 2021).
pIC50: −log10 of the molar value. Converted amounts (≈) assume the structure as drawn. The source made the active and inactive calls. The rule behind the calls is not given here.

How the values were obtained:
[1] = tested on: Mycobacterium tuberculosis; type: functional; details: H37Rv, 168 h, time 7 day
[2] = Lipophilicity, log D of the compound in n-octanol and phosphate buffer at pH 7.4 measured after 3 hrs by HPLC-DAD analysis; type: physicochemical
[3] = tested on: Mycobacterium tuberculosis; type: functional; details: H37Rv, 168 h, time 7 day; remark: listed apart in the source
Vero = experiment: Cytotoxicity against African green monkey Vero cells assessed as reduction in cell viability by MTT assay; type: cell-based; details: Chlorocebus sabaeus
[4] = tested on: Mycobacterium tuberculosis; type: functional; details: H37Rv, 168 h, time 7 day; remark: listed apart in the source
[5] = Aqueous solubility of compound at pH 7.4; type: physicochemical
[6] = Metabolic stability in rat liver microsomes assessed as parent compound remaining at 1 uM in presence of NADPH by LC-MS/MS analysis; type: ADME, Microsome
[7] = tested on: Mycobacterium tuberculosis; experiment: Antimycobacterial activity against mmpL3 gene silenced Mycobacterium tuberculosis H37Rv assessed as inhibition of bacterial growth grown under middlebrook 7H9 medium incubated for 7 days by alamar blue broth microdilution method; type: functional, organism-based; details: time 7.0 day
[8] = tested on: Mycobacterium tuberculosis; type: functional; details: H37Rv, 168 h, time 7 day; remark: listed apart in the source
[9] = tested on: Mycobacterium tuberculosis; type: functional; details: H37Rv, 168 h, time 7 day; remark: listed apart in the source
[10] = Metabolic stability in mouse liver microsomes assessed as parent compound remaining at 1 uM in presence of NADPH by LC-MS/MS analysis; type: ADME, Microsome
[11] = tested on: Mycobacterium tuberculosis; experiment: Antimycobacterial activity against wild-type Mycobacterium tuberculosis H37Rv assessed as inhibition of bacterial growth grown under middlebrook 7H9 medium incubated for 7 days by alamar blue broth microdilution method; type: functional; details: 168 h, time 7 day
[12] = Metabolic stability in human liver microsomes assessed as parent compound remaining at 1 uM in presence of NADPH by LC-MS/MS analysis; type: ADME, Microsome
[13] = tested on: Mycobacterium tuberculosis; experiment: Upregulation of rv3269 in Mycobacterium tuberculosis H37Rv incubated for 6 hrs by microarray based assay; type: functional
[14] = tested on: Mycobacterium tuberculosis; type: functional; details: H37Rv, time 6.0 hrs
[15] = tested on: Mycobacterium tuberculosis; experiment: Upregulation of rv1348 in Mycobacterium tuberculosis H37Rv assessed as fold change incubated for 6 hrs by microarray based assay; type: functional
[16] = tested on: Mycobacterium tuberculosis; experiment: Upregulation of rv3270 in Mycobacterium tuberculosis H37Rv incubated for 6 hrs by microarray based assay; type: functional
[17] = Metabolic stability in mouse liver microsomes assessed as parent compound remaining after 30 mins; type: ADME, Microsome; details: 0.5 h
[18] = tested on: Mycobacterium tuberculosis; type: functional; details: H37Rv, time 6.0 hrs; remark: listed apart in the source
[19] = tested on: Mycobacterium tuberculosis; experiment: Upregulation of rv2384 in Mycobacterium tuberculosis H37Rv incubated for 6 hrs by microarray based assay; type: functional
[20] = tested on: Mycobacterium tuberculosis; type: functional; details: H37Rv, time 6.0 hrs; remark: listed apart in the source
[21] = tested on: Mycobacterium tuberculosis; experiment: Upregulation of rv1343 in Mycobacterium tuberculosis H37Rv assessed as fold change incubated for 6 hrs by microarray based assay; type: functional
[22] = tested on: Mycobacterium tuberculosis; experiment: Upregulation of rv1344 in Mycobacterium tuberculosis H37Rv assessed as fold change incubated for 6 hrs by microarray based assay; type: functional
[23] = tested on: Mycobacterium tuberculosis; experiment: Upregulation of rv1347 in Mycobacterium tuberculosis H37Rv assessed as fold change incubated for 6 hrs by microarray based assay; type: functional
[24] = Metabolic stability in human liver microsomes assessed as parent compound remaining after 30 mins; type: ADME, Microsome; details: 0.5 h
[25] = tested on: Mycobacterium tuberculosis; experiment: Upregulation of rv1342 in Mycobacterium tuberculosis H37Rv assessed as fold change incubated for 6 hrs by microarray based assay; type: functional
[26] = Metal chelating activity assessed as Fe2+-compound complex formation by measuring decrease in band intensity at 10 uM measured after 1 hr in presence of ferrous sulphate by UV-Visible spectrophotometric analysis
[27] = Metabolic stability in rat liver microsomes assessed as parent compound remaining after 30 mins; type: ADME, Microsome; details: 0.5 h
[28] = tested on: Mycobacterium tuberculosis; type: functional; details: H37Rv, 168 h, time 7 day; remark: listed apart in the source
[29] = tested on: Mycobacterium tuberculosis; experiment: Upregulation of rv1345 in Mycobacterium tuberculosis H37Rv assessed as fold change incubated for 6 hrs by microarray based assay; type: functional
[30] = tested on: Mycobacterium tuberculosis; experiment: Upregulation of rv2385 in Mycobacterium tuberculosis H37Rv incubated for 6 hrs by microarray based assay; type: functional
[31] = tested on: Mycobacterium tuberculosis; type: functional; details: H37Rv, time 6.0 hrs; remark: listed apart in the source
[32] = tested on: Mycobacterium tuberculosis; type: functional; details: H37Rv, time 6.0 hrs; remark: listed apart in the source
[33] = Metal chelating activity assessed as Fe2+-compound complex formation by measuring shift in absorbance at 10 uM at 285 nm measured after 1 hr in presence of ferrous sulphate by UV-Visible spectrophotometric analysis
[34] = tested on: Mycobacterium tuberculosis; experiment: Upregulation of rv1346 in Mycobacterium tuberculosis H37Rv assessed as fold change incubated for 6 hrs by microarray based assay; type: functional
[35] = tested on: Mycobacterium tuberculosis; type: functional, H37Rv; details: time 7 day
[36] = tested on: Mycobacterium tuberculosis; type: functional; details: H37Rv, time 6.0 hrs; remark: listed apart in the source
CHO = experiment: Cytotoxicity against CHO cells assessed as reduction in cell viability by MTT assay; type: cell-based; details: Cricetulus griseus
[37] = tested on: Mycobacterium tuberculosis; type: functional; details: H37Rv, time 6.0 hrs; remark: listed apart in the source
[38] = Kinetic solubility of compound at 200 uM at pH 7.4 measured after 20 hrs by HPLC-DAD analysis; type: physicochemical; details: buffer, pH 7.4, 20 h
[39] = tested on: Mycobacterium tuberculosis; type: functional; details: H37Rv, time 6.0 hrs; remark: listed apart in the source
[40] = tested on: Mycobacterium tuberculosis; experiment: Upregulation of rv1349 in Mycobacterium tuberculosis H37Rv assessed as fold change incubated for 6 hrs by microarray based assay; type: functional
[41] = Volume of distribution during elimination phase in C57/BL6 mouse blood at 2 mg/kg, iv administered as bolus dose measured upto 24 hrs by LC-MS/MS analysis; type: ADME, organism-based; details: mouse, in vivo, 2 mg/kg, 24 h
[42] = Tmax in C57/BL6 mouse blood at 20 mg/kg, po measured upto 24 hrs by LC-MS/MS analysis; type: ADME, organism-based; details: mouse, in vivo, 20 mg/kg, 24 h
[43] = AUC (0 to infinity) in C57/BL6 mouse blood at 2 mg/kg, iv administered as bolus dose measured upto 24 hrs by LC-MS/MS analysis; type: ADME, organism-based; parameters: route intravenous, dose 2 mg/kg, time <=24; details: mouse, in vivo, 24 h
[44] = target: Voltage-gated inwardly rectifying potassium channel KCNH2 (Homo sapiens, UniProt Q12809); experiment: Inhibition of human ERG
[45] = tested on: Mycobacterium tuberculosis; experiment: Bactericidal activity against Mycobacterium tuberculosis H37Rv assessed as reduction in CFU grown under middlebrook 7H9/OADC-Glycerol-Tween80 medium at 1 to 2 times MIC incubated for 7 days; type: functional; details: time 7 day
[46] = Intrinsic clearance in C57/BL6 mouse blood at 2 mg/kg, iv administered as bolus dose measured upto 24 hrs by LC-MS/MS analysis; type: ADME, organism-based; details: in vivo
[47] = Cmax in C57/BL6 mouse blood at 2 mg/kg, iv administered as bolus dose measured upto 24 hrs by LC-MS/MS analysis; type: ADME, organism-based; parameters: route intravenous, dose 2 mg/kg, time <=24; details: mouse, in vivo, 24 h
[48] = Protein binding in human plasma assessed as unbound fraction at 5 uM incubated for 1 hr at 37 degreeC and measured after 4 hrs by ultracentrifugation based LC-MS/MS analysis; type: ADME, cell-free; details: 5 h
[49] = Apparent half life in C57/BL6 mouse blood at 2 mg/kg, iv administered as bolus dose measured upto 24 hrs by LC-MS/MS analysis; type: ADME, organism-based; details: mouse, in vivo, 2 mg/kg, 24 h
[50] = Apparent half life in C57/BL6 mouse blood at 20 mg/kg, po measured upto 24 hrs by LC-MS/MS analysis; type: ADME, organism-based; details: mouse, in vivo, 20 mg/kg, 24 h
[51] = Oral bioavailability in C57/BL6 mouse blood at 20 mg/kg measured upto 24 hrs by LC-MS/MS analysis; type: ADME, organism-based; details: mouse, in vivo, 20 mg/kg, 24 h
[52] = Cmax in C57/BL6 mouse blood at 20 mg/kg, po measured upto 24 hrs by LC-MS/MS analysis; type: ADME, organism-based; parameters: route oral, dose 20 mg/kg, time <=24; details: mouse, in vivo, 24 h

Sequence of Voltage-gated inwardly rectifying potassium channel KCNH2 (Q12809 whole entry): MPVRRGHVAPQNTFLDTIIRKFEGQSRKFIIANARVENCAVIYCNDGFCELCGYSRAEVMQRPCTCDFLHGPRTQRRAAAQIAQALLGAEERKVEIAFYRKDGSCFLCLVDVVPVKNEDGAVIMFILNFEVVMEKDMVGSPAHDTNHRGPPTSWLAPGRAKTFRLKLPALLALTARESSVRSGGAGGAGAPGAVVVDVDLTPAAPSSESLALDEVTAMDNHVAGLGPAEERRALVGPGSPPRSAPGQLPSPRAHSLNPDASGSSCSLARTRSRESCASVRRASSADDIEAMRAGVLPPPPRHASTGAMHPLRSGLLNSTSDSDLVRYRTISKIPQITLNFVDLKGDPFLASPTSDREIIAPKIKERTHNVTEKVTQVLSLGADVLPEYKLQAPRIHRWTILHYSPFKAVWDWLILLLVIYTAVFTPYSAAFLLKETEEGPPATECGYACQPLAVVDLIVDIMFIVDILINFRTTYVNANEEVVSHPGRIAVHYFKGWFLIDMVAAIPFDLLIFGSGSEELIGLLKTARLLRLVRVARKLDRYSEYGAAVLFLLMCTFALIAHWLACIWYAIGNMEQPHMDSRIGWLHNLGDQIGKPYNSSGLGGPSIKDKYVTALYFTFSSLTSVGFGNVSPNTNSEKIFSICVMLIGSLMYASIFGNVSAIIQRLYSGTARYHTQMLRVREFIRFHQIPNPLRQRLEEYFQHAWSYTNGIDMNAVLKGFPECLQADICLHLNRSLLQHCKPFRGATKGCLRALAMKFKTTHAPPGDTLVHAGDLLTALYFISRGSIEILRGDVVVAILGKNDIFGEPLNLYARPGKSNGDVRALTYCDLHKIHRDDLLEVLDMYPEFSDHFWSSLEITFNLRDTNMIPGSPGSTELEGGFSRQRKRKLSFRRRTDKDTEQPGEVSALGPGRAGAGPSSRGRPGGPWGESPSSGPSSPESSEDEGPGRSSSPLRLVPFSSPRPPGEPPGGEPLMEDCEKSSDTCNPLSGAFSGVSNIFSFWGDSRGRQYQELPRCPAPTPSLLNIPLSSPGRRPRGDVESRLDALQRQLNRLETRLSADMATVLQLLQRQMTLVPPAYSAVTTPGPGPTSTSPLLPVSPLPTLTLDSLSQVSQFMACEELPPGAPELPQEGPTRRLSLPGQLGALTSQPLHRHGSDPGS

## Cc1ccc(Nc2cc(C)nn2-c2nc(C)cc(O)n2)cc1
[1]
  MIC: 6 µM (≈ 1.77 µg/mL)
[2]
  logD at 3 h: 2.2
[3]
  MIC: 0.4 µM (≈ 0.118 µg/mL)
Vero
  pIC50: 5.92
[4]
  MIC: 0.02 µM (≈ 0.00591 µg/mL)
[5]; aqueous, read-out: solubility
  solubility: < 5 µM
[6]
  Stabilty: 76%
[7]
  Activity: Active
[8]
  MIC: 2 µM (≈ 0.591 µg/mL)
[9]
  MIC: 0.2 µM (≈ 0.0591 µg/mL)
[10]
  Stabilty: 78%
[11]
  MIC: 4.8 µM (≈ 1.42 µg/mL)
[12]
  Stabilty: 73%

## Cc1cc(Nc2ccccn2)n(-c2nc(C(F)(F)F)cc(=O)[nH]2)n1
[13]
  Activity: Active
[14]
  Activity: Active
[15]
  fold change (FC): 2
[16]
  Activity: Active
[17]
  Stabilty: > 99%
[18]
  Activity: Active
[19]
  Activity: Active
[20]
  Activity: Active
[21]
  fold change (FC): 2
[22]
  fold change (FC): 2
[5]; buffer
  solubility: 25 µM (≈ 8.41 µg/mL)
[23]
  fold change (FC): 2
[24]
  Stabilty: > 99%
[25]
  fold change (FC): 2
[26]
  Activity: Active
[27]
  Stabilty: 96%
[8]
  MIC: 0.9 µM (≈ 0.303 µg/mL)
[28]
  MIC: 0.12 µM (≈ 0.0404 µg/mL)
[29]
  fold change (FC): 2
[30]
  Activity: Active
[31]
  Activity: Active
[32]
  Activity: Active
[33]
  deltaA: 300 nm
[34]
  fold change (FC): 2
[35]
  fold change (FC): >=32
[36]
  Activity: Active
CHO
  pIC50: 4.64
[37]
  Activity: Active
[38]
  Kinetic_solubility: 25 µM
[39]
  Activity: Active
[40]
  fold change (FC): 2

## Cc1cc(C)n(-c2nc(C(F)(F)F)cc(=O)[nH]2)n1
[41]
  Vd: 0.7 L/kg
[42]
  Tmax: 0.5 h
[43]
  AUC: 2928 µM·min
[44]
  pIC50: < 4.52
[17]
  Stabilty: > 99%
[45]
  Activity: 2 log10CFU
[5]; buffer
  solubility: 200 µM (≈ 51.6 µg/mL)
[24]
  Stabilty: > 99%
[46]
  CL: 476 mL/min/kg
[27]
  Stabilty: 92%
[7]
  Activity: Active
[8]
  MIC: 12 µM (≈ 3.1 µg/mL)
[47]
  Cmax: 29.1 µM
[48]
  Fu: 0.006
[11]
  MIC: 15 µM (≈ 3.87 µg/mL)
[49]
  t1/2(app): 3.1 h
[50]
  t1/2(app): 4 h
CHO
  pIC50: 3.82
[51]
  F: 41%
[38]
  Kinetic_solubility: 200 µM
[52]
  Cmax: 65.6 µM
